Data set [1] in a line: Stability in liver microsome of mice. It is filed as in vitro ADME. The following applies: liver microsomes; Mouse liver microsome 0.5 mg protein/mL, compound 1 μM, 37° C. How it is done: (§1) Assay 1: Stability assessment of the compounds of the present invention in liver microsome of mice and dogs
(§2) Test substances: the compounds of the present invention, wherein the structures and preparations thereof were as described above.
(§3) The composition of the incubation system:
(§4) Preparation of Test Substances:
(§5) An appropriate amount of the compound was accurately weighed and dissolved in DMSO to prepare a 5.0 mM stock solution. The 5.0 mM stock solution was diluted to 1.0 mM with DMSO, and finally diluted with water to a 10 μM test substance working solution for use (the DMSO content in the reaction system was 0.1%).
(§6) (1) The liver microsome (20 mg protein/mL) was taken out from the −80° C. refrigerator, pre-incubated at 37° C. with a water-bathing constant temperature vibrator for 3 minutes, and melted for use.
(§7) (2) A mixed solution of the incubation system (excluding compounds and β-NADPH) according to the above “composition of the incubation system” for the assay was prepared, and pre-incubated at 37° C. with a water-bathing constant temperature vibrator for 2 minutes.
(§8) (3) Control group (excluding β-NADPH): 30 μL of water and 30 μL of compound working solution (10 μM) were added to 240 μL of the mixed solution of the incubation system of step (2), and vortexed for 30 seconds to mix well. The total reaction volume was 300 μL. A duplicate sample was prepared. The sample was incubated at 37° C. with a water-bathing constant temperature vibrator. The timekeeping began and the sampling time points were set at 0 minute and 60 minutes.
(§9) (4) Sample group: 70 μL of β-NADPH solution (10 mM) and 70 μL of compound working solution (10 μM) were added to 560 μL of the mixed solution of step (2). The total reaction volume was 700 μL. The resulting mixture was vortexed for 30 seconds to mix well. A duplicate sample was prepared. The sample was incubated at 37° C. with a water-bathing constant temperature vibrator. The timekeeping began and the sampling time points were set at 0 minute, 5 minutes, 10 minutes, 20 minutes, 30 minutes, and 60 minutes after timekeeping.
(§10) (5) After vortexing for 3 minutes, the sample was centrifuged at 4000 rpm for 10 minutes.
(§11) (6) 50 μL of the supernatant was taken and 150 μL of water was added. The resulting mixture was vortexed to mix well, and analyzed by LC/MS/MS.
(§12) The half-life (t1/2) and clearance rate (Cl) were calculated using the following first-order kinetic formula:
(§13) Vd=1/protein content in liver microsome
(§14) Note: k was the slope of the logarithm of the remaining amount of the compound versus time, and Vd was the apparent distribution volume.
In general terms: Liver microsomes are a subcellular fraction often used to study metabolism.

A short description of data set [2]: Stability in liver microsome of dogs. Type of data set: in vitro ADME. Particulars: liver microsomes; Dog liver microsome 0.5 mg protein/mL, compound 1 μM, 37° C. How it is done: as §1, §2, §3, §4, §5, §6, §7, §8, §9, §10, §11, §12, §13, §14
A further data set addresses T1, H1299 cell pAxl (Homo sapiens, UniProt P30530).
T1 construct: endogenous in cells; host or cells: H1299
T1 sequence (P30530 26-894): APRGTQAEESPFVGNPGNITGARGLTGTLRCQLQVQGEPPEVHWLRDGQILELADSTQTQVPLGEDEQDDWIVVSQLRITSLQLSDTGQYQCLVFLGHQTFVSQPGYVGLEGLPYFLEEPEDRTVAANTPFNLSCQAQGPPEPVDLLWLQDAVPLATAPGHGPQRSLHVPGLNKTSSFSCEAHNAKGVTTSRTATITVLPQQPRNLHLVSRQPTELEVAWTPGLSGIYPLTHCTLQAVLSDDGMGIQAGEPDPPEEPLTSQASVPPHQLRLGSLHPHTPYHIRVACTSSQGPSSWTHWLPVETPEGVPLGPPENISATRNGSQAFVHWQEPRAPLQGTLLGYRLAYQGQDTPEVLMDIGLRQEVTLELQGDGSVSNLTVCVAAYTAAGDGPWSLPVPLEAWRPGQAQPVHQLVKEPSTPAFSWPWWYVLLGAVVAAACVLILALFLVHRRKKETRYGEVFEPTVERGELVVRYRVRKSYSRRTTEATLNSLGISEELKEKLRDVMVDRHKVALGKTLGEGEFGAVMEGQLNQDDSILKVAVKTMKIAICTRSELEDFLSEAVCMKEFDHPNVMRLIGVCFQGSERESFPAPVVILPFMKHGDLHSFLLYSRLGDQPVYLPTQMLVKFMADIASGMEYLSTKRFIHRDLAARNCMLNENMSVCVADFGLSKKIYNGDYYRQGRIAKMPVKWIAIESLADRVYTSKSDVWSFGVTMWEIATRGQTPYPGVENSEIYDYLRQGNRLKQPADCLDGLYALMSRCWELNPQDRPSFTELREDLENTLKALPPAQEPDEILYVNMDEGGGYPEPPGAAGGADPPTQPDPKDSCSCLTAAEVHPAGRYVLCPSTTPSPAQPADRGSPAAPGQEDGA
The data set is described as follows: Inhibitory activity on the cell pAxl (Western Blot). Type of data set: cell-based. The following applies: H1299 cells, compound 1.1, 3.3, 10, 30 nM, hGAS6 200 ng/mL. As for the experimental part: Assay 5: Test for Inhibitory Activities of the Compounds of the Present Invention on the Cell pAxl
H1299 is a non-small cell lung cancer cell.
Test substances: the compounds of the present invention, wherein the structures thereof were as described above.
Test equipment: protein electrophoresis apparatus (manufactured by Bio Rad), transfer unit (manufactured by Bio Rad), exposure unit (manufactured by Tanon), CO2, cell incubator (manufactured by Thermo).
The H1299 cells were inoculated in a 6-well plate (containing 10% FBS 1640 medium, 5×10^5 cells per well), and adherent cells were cultivated at 37° C. in a 5% CO2 condition for 18 hours. The cells were starved overnight. Different concentrations of compounds were added. The final compound concentrations were 1.1, 3.3, 10, and 30 nM, and the final DMSO content was 1‰. The negative control wells contained the medium containing 1‰ DMSO. After incubating at 37° C. in a 5% CO2 condition for 60 minutes, hGAS6 (R&D, final concentration 200 ng/mL) was added to each well. After further incubating for 60 minutes, the cell total protein was extracted for Western Blot and the […] values were calculated using GraphPad 5.0 software. The inhibitory activity of the compound on the cell pAxl was examined.
In general terms: A western blot detects proteins with antibodies after separation by electrophoresis.

Half-life, microsomal CLint and IC50 data for one compound are collected here from patent publication US20220073496A1, “NOVEL QUINOLINE DERIVATIVE INHIBITOR” (Nanjing Transthera Biosciences Co., Ltd., priority 2018, published 2022).

For orientation: half-life means the time needed for the level to fall by half in the phase considered. A lower half-life goes with rapid decline. As usually defined, the microsomal CLint is the rate of metabolic loss divided by the concentration. In general, IC50 refers to the concentration at which inhibition is half-maximal. A low value points to greater potency in that assay.

For the compound `COc1cc2nccc(Oc3ncc(NC(=O)c4cn(C5CC5)nc(-c5ccc(F)cc5)c4=O)cn3)c2cc1OC` [Compound 44, 2-cyclopropyl-N-(2-((6,7-dimethoxyquinolin-4-yl)oxy)pyrimidine-5-yl)-6-para-fluorophenyl-5-oxo-2,5-dihydropyridazine-4-carboxamide], in data set [1], the half-life at 1 μM is 2.13 h and the microsomal CLint at 1 μM amounted to 10.8 µL/min/mg. In data set [2], this compound gave a half-life at 1 μM of 3.73 h and a microsomal CLint at 1 μM of 6.2 µL/min/mg. Besides, at H1299 cell pAxl, the IC50 lay in the range of 3.3 to 10 nM.
